Legend:
Type in all cases: in vivo
[1] = tested on: larvae of the fall army worm (Spodoptera frugiperda); assay: Spodoptera frugiperda test (cabbage leaf dip, mortality); settings: mortality after 4 days, cabbage leaves dipped
[2] = tested on: larvae of the diamond black moth Plutella xylostella; assay: Plutella xylostella test (cabbage leaf dip, mortality); settings: mortality after 6 days, cabbage leaves dipped
[3] = tested on: larvae of the beet army worm (Spodoptera exigua); assay: Spodoptera exigua test (cabbage leaf dip, mortality); settings: mortality after 4 days, cabbage leaves dipped

## CCCOC(=O)NCCCN(C)C.Cl [propamocarb-HCl, propyl[3-(dimethylamino)propyl]carbamate hydrochloride]
[1]; rate of application 200 ppm
  Efficacy: 10%
[2]; rate of application 200 ppm
  Efficacy: 0%
[3]; rate of application 200 ppm
  Efficacy: 0%

## O=[N+]([O-])NC1=NCCN1Cc1ccc(Cl)nc1 [imidacloprid]
[2]; rate of application 100 ppm
  Efficacy: 15%

## CN1COCN(Cc2cnc(Cl)s2)/C1=N\[N+](=O)[O-] [thiamethoxam]
[3]; rate of application 20 ppm
  Efficacy: 0%

## CN/C(=N\[N+](=O)[O-])NCc1cnc(Cl)s1 [clothianidin]
[1]; rate of application 4 ppm
  Efficacy: 50%

## N#C/N=C1\SCCN1Cc1ccc(Cl)nc1 [thiacloprid]
[1]; rate of application 20 ppm
  Efficacy: 0%

Reference: patent US9210935B2, “Pesticide composition comprising fosetyl-aluminium, propamocarb-HCl and an insecticide active substance” (BAYER INTELLECTUAL PROPERTY GMBH, priority 2006, dated 2015)
